Results taken from PMC11211441, “Distributable, metabolic PET reporting of tuberculosis” (Nature Communications, 2024).

What was measured:
[1] = [19F]FDT clearance and in vivo stability in marmosets (plasma LC-MS, 19F NMR); set-up: species or system common marmosets; conditions: marmosets (n = 3), LC-MS and 19F-NMR
Protocol: In order to determine [^19F]FDT metabolism in vivo, we assessed concentration vs time in two mammalian species: common marmosets and C57BL/6 mice. For marmosets weighing between 290.3–340.3 g, 20 mg of sterile-filtered FDT in PBS was injected IV (n = 3) and ~200 μL blood samples were taken from the femoral vein at 0 min, 5 min, 30 min, 60 min, 90 min and 180 min post injection. Samples were spun (4000 rcf for 10 mins at room temp) to separate red cell mass from plasma. Plasma portion was separated and stored at −80 °C for further analysis. Similarly, mice weighing from 18.7–20.5 g were injected (n = 5) with 5 mg of filter-sterilized FDT solution dissolved in PBS solution, pH 7.4. Mandibular blood samples were taken at 2 min, 15 min, 30 min and 45 min post injection. For the last sample in each mouse, the animal was bled out to get maximum sample for NMR analysis. Final urine samples were collected in 3 out of 5 mice through free catch. Blood samples were centrifuged (6500 rcf for 4 mins at room temp) to separate red cell mass from plasma, and plasma was separated and stored at −80 °C prior to analyzes.
Plasma samples from −80 °C were thawed on ice and mixed with 80% acetonitrile to precipitate plasma proteins and other biomolecules. Samples were centrifuged at 10,000 g, 4 °C for 10 min.
Figure S37. [19F]FDT Clearance and In Vivo Stability in Non-human Primates […]
(§1) A, B) 20 mg [19F]FDT was injected into marmosets (A, n=3 biological replicates, each measured in duplicate) and 5 mg FDT injected into mice (B, n=5 biological replicates, each measured in triplicate). […]
marmosets (A) and mice (B).
[19F]FDG was detected, consistent with the only low levels of metabolism seen with [18F]FDT in rabbits (see Figure S3G). C-F) We further analyzed the potential degradation of FDT into FDG by 19F NMR spectroscopy in marmoset plasma (C) sample from 5 min time point, mouse plasma (D) sample from 30 min time point and mouse urine samples from 30 min (E) and 45 min (F) time points, respectively. In all these samples only [19F]FDT was observed (d -201.2). The data points are average values from three replicates with error bars ± SD.
(1 picture or pasted object on this page, not shown here)

[2] = test system: mammalian (porcine) trehalase; experiment: Trehalase degradation assay; assay type: in vitro ADME; conditions: 0.3 units/mL trehalase, 10 mM substrate
Protocol: The metabolic stabilities of the remaining three analogs, [^18F]FDT, 4-epi-[^18F]FDT and 6-[^18F]FDT were tested. Although, human trehalose-degrading trehalase activity is low and restricted primarily to the brush-border of the kidney where it is thought to be GPI-anchored[28],[32], it can be elevated in some diseases, therefore we also tested degradation of the analogs in vitro using high concentrations of mammalian (porcine) trehalase (0.3 units/mL, 10 mM substrate, Fig. S5). […]
Figure S5. Trehalase Assays.
Substrates were prepared to a final concentration of 10 mM in 0.05 M citric acid, pH 5.7 including trehalase stock solution (0.3 units/mL). The reaction mixture was incubated at 37 °C for 60 minutes, and then quenched with an equal volume of 0.1 M Tris, pH 7.5. Released glucose was measured with glucose assay kit (see Methods).

[3] = [19F]FDT in vivo stability in mice (plasma/urine LC-MS, 19F NMR); conditions: mice (n = 5), LC-MS and 19F-NMR
Protocol: For initial in vivo study, six white mice, CD1, male, weighing between 22–26 grams, were used. Two concentrations of [^19F]FDT (500 μM and 50 μM, final concentration in the blood) were injected into the mice, through the tail vein injection. Prior to injection, each mouse was pre-bled (100 μL) and control samples were obtained. […] Samples were spun at 13000 rpm (15871 x g) for 10 min and the supernatant (plasma) was used for further analysis. 200 μL of plasma sample was transferred into fresh 1.5 mL Eppendorf tube and diluted with equal amount of acetonitrile to precipitate out blood plasma protein and other macromolecules. Samples were further spun at 13000 rpm (15871 x g) for 5 min.
In order to determine [^19F]FDT metabolism in vivo, we assessed concentration vs time in two mammalian species: common marmosets and C57BL/6 mice. For marmosets weighing between 290.3–340.3 g, 20 mg of sterile-filtered FDT in PBS was injected IV (n = 3) and ~200 μL blood samples were taken from the femoral vein at 0 min, 5 min, 30 min, 60 min, 90 min and 180 min post injection. […]
as §1
[19F]FDG was detected, consistent with the only low levels of metabolism seen with [18F]FDT in rabbits (see Figure S3G). […]

[4] = Detection/stability of [19F]FDT in human plasma; assay type: in vitro ADME; conditions: spiked human plasma, LC-MS
Protocol: FDT standards were prepared in human plasma (Sigma Aldrich), whereby 20 μL plasma samples were spiked with various known concentrations of [^19F]FDT i.e. 10 μM, 20 μM, 40 μM, 120 μM, 160 μM, and 300 μM in 1.5 ml Eppendorf tube and diluted with up to 50% acetonitrile solution. Samples were vortexed for 1 min and centrifuged at 13000 rpm (15871 x g) for 10 min and supernatant was analyzed directly by LC-MS using LC method 2.
Figure S35. Detection of [19F]FDT for Assessment of Stability in Human Plasma
A) Experimental set-up of the sample preparation. Commercially available human plasma samples were spiked with known concentrations of [19F] FDT, plasma proteins were then precipitated by adding up to 50% of MeCN solution and after centrifugation the samples were analysed by LC-MS. Panel A created with BioRender.com, released under a Creative Commons Attribution-NonCommercial-NoDerivs 4.0 International license. B) [19F]FDT standard sample analysed by LC-MS method 2 with the retention time of 6.5 min. C) LC-MS analysis of plasma sample spiked with known amount of FDT showing the similar retention […]
efficient detection. D) Calibration curve of plasma samples when spiked with FDT concentrations from 10 µM – 300 µM with r2 = 0.998 and E) Further calibration curve showing instrument sensitivity down to > 390 nM for detection of FDT ( r2 = 0.998 ). […]

[5] = Single and repeat iv dose toxicity study in rats; assay type: in vivo, Sprague Dawley rats
Protocol: For toxicity studies, 2 g of [^19F]-FDT was synthesized and tested for quality control as described above and in Figs.39 and shipped to a contract research organization. Toxicity studies were conducted by SRI International, Biosciences Division, Menlo Park, CA, USA in rats and dogs. The experimental design is described in Tables S10, S11, respectively.

OC[C@H]1O[C@H](O[C@H]2O[C@H](CO)[C@@H](O)[C@H](O)[C@H]2F)[C@H](O)[C@@H](O)[C@@H]1O [[^19F]FDT]
degradation in plasma / in vivo [1]: no detectable degradation
degradation in plasma / in vivo ([1]; listed as [19F]FDT): no degradation
degradation by trehalase [2]: little or no degradation
degradation by trehalase (Figure S5, released glucose) ([2]; pH 5.7, 37 °C, 60 minutes): 0
degradation in plasma / in vivo [3]: no detectable degradation
degradation in plasma / in vivo ([3]; listed as [19F]FDT): no degradation
stability in human plasma [4]: no immediate degradation or apparent sequestration
maximum tolerated dose (MTD) ([5]; Sprague Dawley rats, IV): not reached
adverse findings in any parameters measured ([5]; rats, 100 x or 1000 x expected human dose iv): no adverse findings
